Among the test systems are UACC-257; MDA-N; NCI-H460; CAKI-1; LOX IMVI; COLO 205; HCT-116; SNB-75; T47D; NCI-H522; Hs-578T; M14; CCRF-CEM; UO-31; SNB-19; NCI-H23; HOP-92; SW-620; SF-295; SK-OV-3.
What all share (assay): inhibition of tumour cell growth, NCI panel, 48 h

The structures appear in SMILES notation.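 1) Cells in 96-well plates. 2) Compound, 48 h, 5 concentrations. 3) Linear interpolation between surrounding doses. 4) Unreached endpoint = highest concentration. Abbreviation: GI50, concentration required for 50% inhibition of growth.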 Calls of active or inactive are those of the source. Cut-off read from the data, not from the text of the source: active = GI50 up to about 1.1 µM and inactive = higher. Some results are limits rather than exact numbers.

As for `O=C1N[C@@H]2c3c(csc3Br)C(=O)[C@@H]2O1`, the GI50 in the test on UACC-257 was 22.4 µM (inactive); in the test with MDA-N, 25.1 µM (inactive); with NCI-H460, 43.4 µM (inactive); in the test with CAKI-1, 20.8 µM (inactive); in the test with LOX IMVI, 19 µM (inactive); with COLO 205 it was 35 µM (inactive). In addition, the GI50 in the test with HCT-116 is 27.8 µM (inactive); in the test on SNB-75 it was 48.4 µM (inactive); in the test with T47D, 28.8 µM (inactive); with NCI-H522, 30.1 µM (inactive); in the test on Hs-578T, 31 µM (inactive); in the test with M14, 37.3 µM (inactive). In addition, the GI50 is 15 µM (inactive) with CCRF-CEM; 20.9 µM (inactive) with UO-31; 94 µM (inactive) in the test on SNB-19; 41.7 µM (inactive) in the test on NCI-H23; 20.8 µM (inactive) in the test on HOP-92; 20.2 µM (inactive) in the test on SW-620. Also, the GI50 in the test with SF-295 is 59.2 µM (inactive); with SK-OV-3, 90.4 µM (inactive).
Take `CCN(CC)C1Oc2cc3c(cc2C(c2cc(OC)c(O)c(OC)c2)C1C)OCO3` (stereo not given): the GI50 with UACC-257 was 25 µM (inactive); with MDA-N, 1.98 µM (inactive); in the test on NCI-H460 it was 6.18 µM (inactive); with CAKI-1 it was 12.5 µM (inactive); with LOX IMVI, 9.66 µM (inactive); with COLO 205, 15.5 µM (inactive). Further, the GI50 in the test with HCT-116 was 4.53 µM (inactive); in the test on SNB-75, 3.48 µM (inactive); in the test on T47D it was 16.8 µM (inactive); in the test on NCI-H522, 3.1 µM (inactive); in the test on Hs-578T, 6.84 µM (inactive); in the test on M14 it was 4.69 µM (inactive). The GI50 is 7.29 µM (inactive) in the test on CCRF-CEM; 19.6 µM (inactive) in the test on UO-31; 16.2 µM (inactive) in the test with SNB-19; 28.8 µM (inactive) in the test with NCI-H23; 15.5 µM (inactive) in the test with HOP-92; 4.62 µM (inactive) with SW-620. The figures for the GI50 with SF-295 and with SK-OV-3 were 5.22 µM (inactive) and 9.18 µM (inactive), respectively.
For `O=C(O)c1ccc(C2=Nc3cccc4cccc(c34)N2)cc1`, the GI50 in the test on UACC-257, with MDA-N, in the test on NCI-H460, in the test on CAKI-1, with LOX IMVI and with COLO 205 was > 100 µM (inactive) in each case. Moreover, the GI50 is > 100 µM (inactive) in the test on HCT-116; > 100 µM (inactive) in the test on SNB-75; 57.9 µM (inactive) with T47D; 82.6 µM (inactive) in the test on NCI-H522; > 100 µM (inactive) in the test on Hs-578T; > 100 µM (inactive) with M14. Besides, the GI50 was 24.7 µM (inactive) with CCRF-CEM; > 100 µM (inactive) with UO-31; > 100 µM (inactive) in the test with SNB-19; > 100 µM (inactive) with NCI-H23; 45.6 µM (inactive) in the test on HOP-92; > 100 µM (inactive) in the test with SW-620. Besides, the GI50 in the test with SF-295 and with SK-OV-3 was > 100 µM (inactive) throughout.
In the case of `CN(CCc1ccccn1)C(=S)N/N=C(\c1ccccc1)c1ccccn1`, the GI50 in the test on UACC-257 is < 0.01 µM (active); in the test with MDA-N, 0.582 µM (active); with NCI-H460 it was < 0.01 µM (active); in the test with CAKI-1 it was < 0.01 µM (active); in the test with LOX IMVI, < 0.01 µM (active); in the test with COLO 205, < 0.01 µM (active). Moreover, the GI50 in the test with HCT-116 is < 0.01 µM (active); in the test with SNB-75 it was 1.3 µM (inactive); with T47D, < 0.01 µM (active); in the test with NCI-H522, < 0.01 µM (active); in the test with Hs-578T, 1.91 µM (inactive); with M14, < 0.0394 µM (active). The GI50 is < 0.01 µM (active) in the test with CCRF-CEM; 0.0192 µM (active) with UO-31; 0.215 µM (active) in the test with SNB-19; < 0.01 µM (active) in the test with NCI-H23; 1.73 µM (inactive) in the test on HOP-92; < 0.01 µM (active) with SW-620. Also, the GI50 is < 0.0266 µM (active) with SF-295 and < 0.01 µM (active) with SK-OV-3.
Turning to `C#CCn1c(I)cc2c(c1=O)COC(=O)[C@]2(O)CC`, the GI50 in the test on UACC-257, in the test on MDA-N, with NCI-H460, in the test on CAKI-1, in the test with LOX IMVI and in the test with COLO 205 was > 100 µM (inactive) throughout. The GI50 in the test on HCT-116, in the test on SNB-75, in the test with T47D, in the test with NCI-H522, in the test with Hs-578T and in the test with M14 was > 100 µM (inactive) in each case. Also, the GI50 in the test with CCRF-CEM, in the test on UO-31, with SNB-19, with NCI-H23, with HOP-92 and in the test on SW-620 was > 100 µM (inactive) in each case. The GI50 in the test on SF-295 and in the test with SK-OV-3 was > 100 µM (inactive) in each case.
For the molecule `N#Cc1ccc(OC(=O)c2ccc(NC(=N)N)cc2)cc1.c1ccncc1`, the GI50 in the test on UACC-257 is > 100 µM (inactive); in the test on MDA-N, 64.3 µM (inactive); in the test on NCI-H460, > 100 µM (inactive); in the test on CAKI-1, 80 µM (inactive); in the test with LOX IMVI, 80.7 µM (inactive); with COLO 205, 39.1 µM (inactive). In addition, the GI50 with HCT-116 was 59.3 µM (inactive); in the test with SNB-75, 43.9 µM (inactive); in the test with T47D, 42.5 µM (inactive); in the test on NCI-H522, 30 µM (inactive); in the test on Hs-578T, > 100 µM (inactive); with M14, > 100 µM (inactive). In addition, the GI50 is 22.2 µM (inactive) with CCRF-CEM; > 100 µM (inactive) in the test on UO-31; 56.2 µM (inactive) with SNB-19; > 100 µM (inactive) in the test on NCI-H23; 93.5 µM (inactive) with HOP-92; 35.5 µM (inactive) in the test with SW-620. For the same molecule, the GI50 with SF-295 and with SK-OV-3 was > 100 µM (inactive) in each case.
In the case of `COC(=O)C1(C(=O)OC)C/C(C)=C(/C)SCCCS1`, the GI50 is 71.9 µM (inactive) in the test with UACC-257; > 100 µM (inactive) in the test on MDA-N; > 100 µM (inactive) in the test with NCI-H460; > 100 µM (inactive) in the test on CAKI-1; > 100 µM (inactive) in the test on LOX IMVI; > 100 µM (inactive) in the test with COLO 205. The GI50 in the test with HCT-116 is > 100 µM (inactive); in the test on SNB-75 it was 28.4 µM (inactive); with T47D it was > 100 µM (inactive); in the test with NCI-H522, > 100 µM (inactive); in the test with Hs-578T, > 100 µM (inactive); with M14, > 100 µM (inactive). For the same molecule, the GI50 was > 100 µM (inactive) in the test on CCRF-CEM; > 100 µM (inactive) in the test on UO-31; > 100 µM (inactive) in the test on SNB-19; > 100 µM (inactive) with NCI-H23; 49.5 µM (inactive) in the test on HOP-92; > 100 µM (inactive) with SW-620. Moreover, the GI50 in the test on SF-295 and with SK-OV-3 was > 100 µM (inactive) in each case.

The values above are taken from ChEMBL document CHEMBL1201862, “PubChem BioAssay data set” (2004).
